# Results from PubChem BioAssay (NCI).
#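 Tested at 5 concentrations; 48 h exposure; 96-well plates; endpoints linearly interpolated, else capped at highest concentration. GI50 marks 50% less growth. Definition used: TGI = concentration required for complete inhibition of growth.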
# Experiments:
# Assay in all cases: inhibition of tumour cell growth, NCI panel, 48 h
# 786-0 renal = system: 786-0 renal
# COLO 205 colon = system: COLO 205 colon
# HCT-15 colon = system: HCT-15 colon
# HOP-62 NSCLC = system: HOP-62 NSCLC
# IGROV1 ovarian = system: IGROV1 ovarian
# NCI-H522 lung = system: NCI-H522 lung
# SF-539 CNS = system: SF-539 CNS
# SK-MEL-2 melanoma = system: SK-MEL-2 melanoma
# SK-OV-3 ovarian = system: SK-OV-3 ovarian
# SN12C renal = system: SN12C renal
Compound,TGI (786-0 renal) [µM],TGI (COLO 205 colon) [µM],TGI (HCT-15 colon) [µM],TGI (HOP-62 NSCLC) [µM],TGI (IGROV1 ovarian) [µM],TGI (NCI-H522 lung) [µM],TGI (SF-539 CNS) [µM],TGI (SK-MEL-2 melanoma) [µM],TGI (SK-OV-3 ovarian) [µM],TGI (SN12C renal) [µM],GI50 (786-0 renal) [µM],GI50 (COLO 205 colon) [µM],GI50 (HCT-15 colon) [µM],GI50 (HOP-62 NSCLC) [µM],GI50 (IGROV1 ovarian) [µM],GI50 (NCI-H522 lung) [µM],GI50 (SF-539 CNS) [µM],GI50 (SK-MEL-2 melanoma) [µM],GI50 (SK-OV-3 ovarian) [µM],GI50 (SN12C renal) [µM]
CC(=O)c1ccccc1NC(=O)C(=O)C(C(=O)c1ccc2ccccc2c1)C1OC(=O)c2ccccc21 (stereo not given),20.9,30.2,40.1,28.4,52.6,29.2,22.1,24.9,> 100,37.9,–,–,–,–,–,–,–,–,–,–
COC1=CC(c2ccc[nH]2)=N/C1=C\c1[nH]c(C)c(C(=O)CCC(=O)Oc2ccc3c(c2)CCC2C3CC[C@]3(C)[C@@H](O)CC[C@@H]23)c1C (stereo not given in full),4.35,> 100,4.18,4.95,> 100,6.5,28.8,17.8,> 100,> 100,2.04,5.15,1.29,1.87,4.47,1.99,3.69,3.52,5.56,5.06
O=C(c1ccccc1)C(Cl)C(Cl)c1ccccc1 (stereo not given),3.52,4.26,9.03,21.7,11.4,3.42,10.2,9.33,30.5,5.95,1.79,2.06,2.12,7.61,3.45,1.7,3.01,3.55,16.8,2.1
COC(=O)C12CCC(C)(C)CC1C1=CCC3C4(C)CC(O)C(O)C(C)(C(=O)OC)C4CCC3(C)C1(CO)CC2 (stereo not given),23.3,29.1,29.1,32.2,35.2,35.2,31.6,28.2,31.3,33.2,–,–,–,–,–,–,–,–,–,–
O=C(Cn1c(C(=O)c2ccc(Cl)cc2)nc(-c2ccc(Cl)cc2)c1-c1ccc(Cl)cc1)c1ccccc1,> 100,> 100,> 100,> 100,> 100,> 100,> 100,> 100,> 100,> 100,> 100,> 100,> 100,> 100,> 100,> 100,> 100,> 100,> 100,> 100
C/C(CCC(=O)O)=N/Nc1ccc([N+](=O)[O-])cc1,> 100,> 100,> 100,> 100,> 100,> 100,14.8,> 100,> 100,> 100,4.34,3.43,3.35,> 100,> 100,0.738,3.18,66.3,> 100,> 100
O=C(CCCn1c2c(sc3ccccc32)c(=O)n2nnc(-c3ccccc3)c12)NCCc1cnc[nH]1,1.79,2.35,2.14,2.87,2.07,2.79,0.111,4.98,6.04,2.01,0.594,0.299,0.505,1.31,0.0997,0.0346,< 0.0144,2.37,2,< 0.0105
CC1CCC2C(C)C(=O)OC3OC4(C)CCC1C32OO4 (stereo not given),> 100,> 100,> 100,> 100,> 100,> 92.6,> 100,> 100,> 100,> 100,> 100,> 100,–,> 100,–,–,–,–,–,–
C[C@@H](N)COc1ccc(-c2cnc3ccc(N[C@H](C)c4cccc(F)c4)nn23)cc1,2.74,2.96,10.1,11.9,6.23,3.17,2.86,4.48,16.9,10.4,1.33,1.1,2.32,2.29,2.18,1.42,1.52,1.99,5.05,2.02
Oc1c(C(Nc2ccccn2)c2cccc(Oc3ccccc3)c2)ccc2cccnc12 (stereo not given),11.1,14.7,> 100,21,21.5,18.6,3.56,21,15.6,20.9,0.657,0.492,0.331,0.448,0.538,0.492,0.372,1.68,0.836,0.591
CCn1c(-c2nonc2N)nc2c(C#CC(C)(C)O)ncc(OC3CCNCC3)c21,> 25,> 21.9,> 25,> 25,> 25,8.82,> 25,19.4,> 25,> 25,6.79,4.89,> 25,> 16.4,0.696,4.42,2.95,8.01,3.86,9.21
NC1N=Nc2ccccc21 (stereo not given),> 100,> 100,> 100,> 100,> 100,> 100,> 100,> 100,> 100,> 100,–,–,–,–,–,–,–,–,–,–
CN1CCN(C(=O)[C@@]2(C)CC[C@]3(C)CC[C@]4(C)C(=CC[C@@H]5[C@@]6(C)CCC(=O)NC(C)(C)[C@@H]6CC[C@]54C)[C@@H]3C2)CC1,2.98,3.18,2.96,3.13,3.77,3.75,2.9,3.84,3.87,3.3,1.58,1.54,1.2,1.56,1.77,1.78,1.56,1.94,1.84,1.46
COC(=O)c1ccc2nc(-c3cc4ccccc4n3C)n(CCCCOc3cc4c(cc3OC)C(=O)N3CCC[C@H]3C=N4)c2c1,2.46,1.46,8.94,3.76,0.889,1.1,2.43,0.631,4.67,2.17,0.789,0.575,2.41,0.905,0.254,0.291,0.881,–,1.86,0.361
N#CC(C#N)=CNCCN1CCN(C=C(C#N)C#N)CC1,> 100,> 100,> 100,> 100,> 100,> 100,> 100,> 100,> 100,> 100,–,–,–,–,–,–,–,–,–,–
CNS(=O)(=O)OCC1OC(n2cnc3cncnc32)C(O)C1O (stereo not given),> 100,> 100,> 100,> 100,> 100,> 100,> 100,> 100,> 100,> 100,> 100,> 100,> 100,> 100,> 100,> 100,> 100,> 100,> 100,> 100
CS(=O)(=O)N1CCC(n2c(=O)c(Oc3ccc(F)cc3F)cc3cnc(NC4CCOCC4)nc32)CC1,> 25,> 25,> 25,> 25,> 25,> 25,> 25,> 25,> 25,> 25,> 25,> 25,> 25,> 25,> 25,> 25,> 25,> 25,> 17.5,> 25
Cc1cc(Cl)nc2ccc(Cc3ccc4nc(Cl)cc(C)c4c3)cc12,30.7,> 100,> 100,96.9,> 100,> 100,32,> 100,47.1,> 100,–,–,–,–,–,–,–,–,–,–
COc1ccc(Nc2nc3cc(C(F)(F)F)ccc3nc2-c2ccccc2)cc1OC,> 100,> 100,> 100,39.3,> 100,> 100,> 100,> 100,66.5,> 100,–,–,–,–,–,–,–,–,–,–
COC(=O)Oc1nn(C(=O)OC)c(=O)c2ccccc12,> 100,> 100,> 100,> 100,> 100,> 100,> 100,> 100,> 100,> 100,–,–,–,–,–,–,–,–,–,–
O=C(/C=C/C12c3ccccc3C(c3ccccc31)C1C(=O)N(c3ccc(Cl)cc3)C(=O)C12)c1ccccn1 (stereo not given),0.398,1.13,0.66,2.22,0.643,1.01,0.676,2.74,> 100,1.57,0.194,0.49,0.206,0.405,0.248,0.26,0.258,0.529,1.98,0.32
CN1C(=O)CC2(C)c3cc(O)cc(Br)c3N(C)C12 (stereo not given),> 100,> 100,> 100,> 100,> 100,> 100,> 100,> 100,> 100,> 100,–,–,–,–,–,–,–,–,–,–
CCCCCCC1N=C(N)N=C(N)N1c1cccc(Cl)c1 (stereo not given),13.3,18.4,> 100,10.9,5.88,14.1,5.76,27.7,20.9,13.1,0.289,1.44,21.6,0.436,0.199,0.701,0.0846,11.3,1.22,0.559
Cc1ccc(-c2nc3nc(-c4ccc(F)cc4)nc(N4CCNCC4)c3o2)cc1,3.34,4.64,3.38,37.9,3.16,6.19,3.12,35.4,34.4,19.8,1.76,2.1,1.67,16.4,1.68,2.18,1.67,14.9,18.7,5.54
COc1cc2c3c(n(CCCN4CCNCC4)c(=O)c2cc1OC)-c1cc2c(cc1C3=O)OCO2,0.429,14,5.14,0.138,20.7,15.7,0.355,28.3,24.8,0.491,0.0513,3.06,0.296,0.0265,2.03,2.18,0.0399,2.91,3.35,0.102
CCc1ccccc1NC(=O)C(C#N)C1=C(Cl)C(=O)c2ccccc2C1=O (stereo not given),31.4,31.1,28.7,43.4,32.8,29.7,37.2,37.2,> 100,27.9,–,–,–,–,–,–,–,–,–,–
O=C1C(=c2ccc(=C3C(=O)c4ccc([N+](=O)[O-])cc4[N+]3=O)cc2)N([O-])c2cc([N+](=O)[O-])ccc21,> 100,> 100,> 100,> 100,> 100,> 100,> 100,> 100,> 100,> 100,–,> 100,> 100,–,> 100,> 100,> 100,> 100,> 100,> 100
Cc1ccc([Se](=C(C(=O)c2ccccc2)C(=O)c2ccccc2)c2ccc(C)cc2)cc1,> 100,43.4,44.7,> 100,78.5,72.9,66,> 100,> 100,36.7,–,–,–,–,–,–,–,–,–,–
